The record followed here is patent US20250122181A1, “BENZIMIDAZOLES AS MODULATORS OF IL-17” (Janssen Pharmaceutica NV, priority 2021, published 2025).

Assay [1] addresses T1, IL-17A(FLAG-Tagged): IL-17RA(His-Tagged) (Homo sapiens, UniProt Q16552, K93Q). Nature of the assay: IL-17A(FLAG-Tagged): IL-17RA(His-Tagged) Binding Disruption Eu-HTRF Assay, Protocol 2. The following applies: Protocol 2, FLAG tagged IL-17A 1 nM; simple average if tested more than once. The text has this:
An antibody directed against the FLAG tag of IL-17A (SEQ ID NO: 1) is labeled with the HTRF donor chromophore (Europium-cryptate). IL-17A is present as a dimer that is “locked into” this quaternary structure due to the formation of loop-spanning […] disulfide bridges. The construct of IL-17RA used in the assay excludes the […] portion of the receptor and is fused to a C-terminal 10×His tag (SEQ ID NO:2). An antibody directed against the His tag of the IL-17RA chimera is labeled with the HTRF acceptor chromophore (“D2”). The fluorescence-resonance energy transfer (FRET) depends on the vicinity of the donor chromophore to the acceptor, and interruption of the binding between the IL-17A and IL-17RA causes the reduction/loss of FRET. Therefore, this assay allows to evaluate the compound effect on the binding IL-17A and IL-17RA by monitoring the fluorescence intensity of donor vs acceptor. The assay was run using either Protocol 1 or Protocol 2 as described below.
Protocol 2. 40 nl of 2-fold serial diluted compound solution for total 22 dilution points is added into each well of a 1536-well, white, low-volume, non-binding plate (Greiner #782904), then 2 μl of FLAG tagged IL-17A at 2× final concentration (1 nM) in solution of PBS+0.01% Triton-X100 is added to each well. The assay plate is briefly centrifuged then incubated for 1 h at rt. A mixed solution is prepared containing 2×5 nM 10HIS×IL-17RA, 2×2.5 nM Eu-anti-FLAG (CISBIO), 2×5 nM D2-anti-HIS (CISBIO) in PBS+0.01% Triton-X100+200 mM Potassium Fluoride (Sigma 60238) and 2 μl of mix is added to each well of the assay plate. The plate is briefly centrifuged then incubated for 2 h at rt. The HTRF intensities at the wavelength of donor (615 nm) and acceptor (665 nm) are measured using BMG Pherastar. The ratio between intensities at two wavelengths is calculated and plotted against the compound concentration and the data is fitted to a one-site competition model to yield IC50 of the compound.
A general note: In TR-FRET formats the signal depends on donor and acceptor labels being close together.

The subject of assay [2] is IL-17A-induced G-CSF production in human normal keratinocyte (NHK). Nature of the assay: NHK Assay: IL-17A-induced G-CSF production in human normal keratinocyte. Format: cell-based. The conditions noted are these: 24 h, IL-17A 5 ng/mL, simple average if tested more than once. The method in brief:
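Compound titrations are first mixed with recombinant human IL-17A for 1 h at room temperature. The mixture goes onto adult normal human keratinocytes (final IL-17A 5 ng/mL, 5% FBS, 0.2% DMSO) for 24 h at 37 °C. Secreted G-CSF is then measured by HTRF and IC50 fitted.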

The target in assay [3] is T1, IL-17A(FLAG-Tagged): IL-17RA(His-Tagged). Description: IL-17A(FLAG-Tagged): IL-17RA(His-Tagged) Binding Disruption Eu-HTRF Assay, Protocol 1. The following applies: Protocol 1, FLAG tagged IL-17A 2.5 nM; simple average if tested more than once. The method in brief: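 IC50 came from a one-site competition fit of the acceptor/donor (665/620 nm) HTRF ratio. His-tagged IL-17RA, Eu-anti-FLAG and D2-anti-His were added after a 1 h rt compound preincubation with FLAG-tagged IL-17A dimer in PBS/0.01% Triton X-100, followed by 2 h at rt before reading.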

Some results are limits rather than exact numbers.

T1 sequence (Q16552 with tags, fused parts or gaps K93Q): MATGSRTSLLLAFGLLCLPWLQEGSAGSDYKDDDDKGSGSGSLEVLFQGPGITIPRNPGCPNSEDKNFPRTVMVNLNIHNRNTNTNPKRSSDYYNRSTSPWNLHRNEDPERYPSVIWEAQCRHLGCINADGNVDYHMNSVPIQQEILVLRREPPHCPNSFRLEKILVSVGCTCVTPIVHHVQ

As a reminder, the IC50 is the concentration that inhibits the measured activity by half. For the compound `COC[C@H](c1ccc2nc(C(NC(=O)c3nonc3C3CC3)[C@@H](C)O[C@H](C)C(F)(F)F)[nH]c2c1F)N1C[C@@H](C(F)(F)F)NC1=O` (single isomer, unassigned) [Example 94, 4-Cyclopropyl-N-((1S*,2R)-1-(7-fluoro-6-((S)-2-methoxy-1-((S)-2-oxo-4-(trifluoromethyl)imidazolidin-1-yl)ethyl)-1H-benzo[d]imidazol-2-yl)-2-(((R)-1,1,1-trifluoropropan-2-yl)oxy)propyl)-1,2,5-oxadiazole-3-carboxamide], the IC50 in assay [1] is below 50 nM; in assay [2] (Homo sapiens, Keratinocyte) it was below 50 nM.
For the compound `C[C@@H](OC1CC1)[C@H](NC(=O)c1nonc1C1CC1)c1nc2cc([C@@H](COC3CC3)N3C[C@@H](C(F)(F)F)NC3=O)ccc2[nH]1` [Example 69, N-((1R,2R)-2-Cyclopropoxy-1-(5-((S)-2-cyclopropoxy-1-((S)-2-oxo-4-(trifluoromethyl)imidazolidin-1-yl)ethyl)-1H-benzo[d]imidazol-2-yl)propyl)-4-cyclopropyl-1,2,5-oxadiazole-3-carboxamide], the IC50 is below 50 nM in assay [1] and below 50 nM in assay [2] (Homo sapiens, Keratinocyte).
With `C[C@@H](OC1CC1)[C@H](NC(=O)c1nonc1C1CC1)c1nc2cc([C@@H](COC3CC3)N3CC(F)(F)CNC3=O)ccc2[nH]1` [Example 71, N-((1R,2R)-2-Cyclopropoxy-1-(5-((S)-2-cyclopropoxy-1-(5,5-difluoro-2-oxotetrahydropyrimidin-1(2H)-yl)ethyl)-1H-benzo[d]imidazol-2-yl)propyl)-4-cyclopropyl-1,2,5-oxadiazole-3-carboxamide], the IC50 in assay [1] was below 50 nM; in assay [2] (Homo sapiens, Keratinocyte), below 50 nM.
For `CC(C)n1ncc(F)c1C(=O)N[C@H](c1nc2cc([C@@H](COC3CC3)N3CC(F)(F)CNC3=O)ccc2[nH]1)[C@@H](C)OC1CC1` [Example 72, N-((1R,2R)-2-Cyclopropoxy-1-(5-((S)-2-cyclopropoxy-1-(5,5-difluoro-2-oxotetrahydropyrimidin-1(2H)-yl)ethyl)-1H-benzo[d]imidazol-2-yl)propyl)-4-fluoro-1-isopropyl-1H-pyrazole-5-carboxamide], the IC50 in assay [1] was below 50 nM; in assay [2] (Homo sapiens, Keratinocyte) it was 50 to 100 nM.
For the compound `COC[C@H](c1ccc2nc(C(NC(=O)c3nonc3C)[C@@H](C)O[C@H](C)C(F)(F)F)[nH]c2c1F)N1C[C@@H](C(F)(F)F)NC1=O` (single isomer, unassigned) [Example 97, N-((1R*,2R)-1-(7-Fluoro-6-((S)-2-methoxy-1-((S)-2-oxo-4-(trifluoromethyl)imidazolidin-1-yl)ethyl)-1H-benzo[d]imidazol-2-yl)-2-(((R)-1,1,1-trifluoropropan-2-yl)oxy)propyl)-4-methyl-1,2,5-oxadiazole-3-carboxamide], the IC50 in assay [1] and in assay [2] was below 50 nM throughout.
As to `COC[C@H](c1ccc2nc(C(NC(=O)c3nonc3C)[C@@H](C)O[C@H](C)C(F)(F)F)[nH]c2c1F)N1C[C@@H](C(F)(F)F)NC1=O` (single isomer, unassigned) [Example 96, N-((1S*,2R)-1-(7-Fluoro-6-((S)-2-methoxy-1-((S)-2-oxo-4-(trifluoromethyl)imidazolidin-1-yl)ethyl)-1H-benzo[d]imidazol-2-yl)-2-(((R)-1,1,1-trifluoropropan-2-yl)oxy)propyl)-4-methyl-1,2,5-oxadiazole-3-carboxamide], the IC50 was 50 to 100 nM in assay [1] and below 50 nM in assay [2] (Homo sapiens, Keratinocyte).
As for `CC(C)(OC[C@H](NC(=O)c1nonc1C1CC1)c1nc2ccc(CN3CC(F)(F)CNC3=O)cc2[nH]1)C(F)(F)F` [Example 30, (R)-4-Cyclopropyl-N-(1-(6-((5,5-difluoro-2-oxotetrahydropyrimidin-1(2H)-yl)methyl)-1H-benzo[d]imidazol-2-yl)-2-((1,1,1-trifluoro-2-methylpropan-2-yl)oxy)ethyl)-1,2,5-oxadiazole-3-carboxamide], the IC50 in assay [2] (Homo sapiens, Keratinocyte) was below 50 nM; in assay [3], below 50 nM.
